Data set [1] in a line: Kinetic stability of ligands in simulated physiological conditions (UV-Vis). Conditions: for Stability: percentage of the residual ligand after 4 h: PBS, pH 7.4, 37 °C in darkness; for Stability ranking (residual ligand after 4 h): rank among the 7 ligands, 1 = most stable. It is filed as physicochemical. Here is the method: The chemical stability of ligands and metal complexes at the M:L 1:L molar ratio at 37 °C in darkness was evaluated by UV−Vis spectroscopy as a change in absorbance in the 250−600 nm range over an overall period of 8 h. Solutions (5.0 × 10^–5 mol L^–1) of the ligands were prepared in 0.1 mol L^–1 phosphate-buffered solution (PBS) at pH 7.4. Spectra were recorded every 30 min. All profiles were linearized as the hyperbolic function defined by Equation (2), which represents an empirical model that describes drug decomposition or release well [42]:(2) t/f%=at+b where f% is the percentage of the residual compound at time t (min) referred to the starting concentration at time zero determined by reading the absorbance at λmax.

Data set [2] in a line: Keto-enol/diketo tautomer amounts by 1H NMR. Conditions: molar percentage, MeOD-d4, 298 K; for KE (%) amount of keto–enol form: for 2 includes KE form of the Z isomer (6%). It is filed as physicochemical. Here is the method: NMR spectra were recorded by means of a Bruker Biospin FT-NMR AVANCE III HD (600 MHz) spectrometer equipped with a CryoProbe BBO H&F 5 mm in inverse detection. The nominal frequencies were 150.90 MHz for ^13C and 600.13 MHz for ^1H, respectively. For each sample, 1–5 mg were weighed and diluted up to 0.6 mL with a proper solvent in a 5 mm NMR tube; 90° pulse was calibrated for each sample, and standard NMR parameters were used to achieve quantitative results (relaxation delay, 10 s). Proton and carbon chemical shifts are given in parts per million (ppm) versus external TMS and were determined by reference to the solvent residual signals. Typical 2D homo- and heteronuclear techniques were used for assignment, i.e., ^1H,^1H COSY, ^1H,^13C HSQC, ^1H,^13C HMBC. NMR investigations of Ga^3+:L systems were performed in MeOD-d4 by adding small amounts of a Ga(NO3)3 solution (10 μL each) to 1 mM ligand solution (0.6 mL) until reaching the desired metal-to-ligand molar ratio. The complexation reaction is fast, and spectra were registered few minutes after the addition. Two-dimensional ^1H,^13C heteronuclear multiple bond correlation (HMBC) experiments (hmbcgpndqf in Bruker library) were performed via heteronuclear zero and double quantum coherence, optimized on long-range couplings (^3/4JHC = 8 Hz), with no decoupling during acquisition, and gradient pulses were used for selection. The relative percentages of the isomeric forms were estimated on the basis of the NMR data. Particularly, ^1H NMR spectra were acquired in quantitative conditions being D1 (relaxation delay) at least five times the T1 of the slowest relaxing signal of interest. The raw data were Fourier-transformed, and then the processing was performed by zero filling (SI = TD), line broadening (lb 0.3 Hz), accurate phasing and correcting the baseline. The most isolated signals were selected for integration, i.e., the vinyl protons (H-3 and H-4), and an average of the integrated area (A) of H-3 and H-4 was used for relative quantitation, according to the following equation: %Tautomeri=(A(H−3)i+(A(H−4)i)/2/∑i(A(H−3)i+(A(H−4)i)/2×100

Data set [3] concerns HCT116 colon carcinoma cells. In words: MTT cell viability assay. Conditions: mean. It is filed as cell-based, Human. Here is the method: Human colorectal carcinoma HCT116 cells (#91091005, ECACC) were grown in an IMDM medium (Biowest) supplemented with 2 mM glutamine, 100 IU/mL penicillin, 100 μg/mL streptomycin and 10% FBS (Gibco). The cell lines were grown at 37 °C in a humidified incubator containing 5% CO2. The cells were verified to be mycoplasma-free and passaged < 3 months. The inhibition of cell proliferation was measured by colorimetric 3-(4,5-dimethylthiazol-2-yl)-2,5-diphenyltetrazolium bromide (MTT) assay. GI50 concentrations were determined using the CompuSyn software version 1.0 (ComboSyn, Inc., Paramus, NJ USA) (free download via www.combosyn.com, accessed on 30 May 2022), and statistical analyses were performed using the GraphPad PRISM software (version 6.01 for Windows, GraphPad Software, San Diego, California USA GraphPad Prism) using unpaired t-test. Data were considered to be statistically significant if p < 0.05 (*), p < 0.01 (**), p < 0.001(***) and p < 0.0001 (****).
Background: Formazan colour is commonly taken as a measure of viable cells.

The nature of data set [4]: Spectrophotometric pH titrations of ligands (protonation constants, pKa). It is filed as physicochemical. Conditions: 298 K; for logβ011 overall protonation constant / logβ012 overall protonation constant / logβ013 overall protonation constant: HypSpec, spectrophotometric data; for pKa: aqueous solution (methanol stock diluted in water). Here is the method:
UV–visible spectra were recorded with a JASCO V-570 UV/Vis/NIR spectrophotometer at 298 K in the 250–600 nm spectral range employing quartz cells (1 cm optical path). To perform spectrophotometric titrations, ligands (denoted generally as L in the following) were dissolved in methanol to give a mother solution (2.50 mM), that was then diluted in water in order to obtain a final concentration of 50 μM. The metal/ligand (M:L) solutions were obtained by adding appropriate quantities of Ga(NO3)3 as methanol solutions (5–10 mM) in order to obtain the metal-to-ligand 1:1 molar ratio (L = 50 μM and V = 25 mL). For both L and M:L systems, pH (initial value of about 5) was varied by adding small amounts (<1 μL) of concentrated NaOH (4 M) up to ca. pH 11, thus to consider volume variations negligible. To evaluate the complexation ratio, constant additions of the M solution (10 µL each time, M = 10^–2 M) were dropped into the ligand solution (V = 25 mL, L = 50 μM) using a micropipette in order to reach different M:L molar ratios. A constant ionic strength (NaNO3, 0.1 M) was maintained in all experiments. Spectrophotometric investigations of iron(III) systems were performed in the same conditions; the Fe^3+ solution was freshly prepared in methanol starting from Fe(NO3)3·9H2O. The overall protonation constants (logβqr) and the overall stability constants of metal complexes (logβpqr) were evaluated from spectrophotometric data. The stability constants (βpqr), defined by the following equations:(3) pM^m++qL^l^−+rH^+⇌MpLqHr(mp−lq+r) (4) βpqr=[MpLqHr(mp−lq+r)]/[M^m+]^p·[L^l−]^q·[H^+]^r where L is the ligand in the completely dissociated form and H is proton, were refined using least-squares calculation in HypSpec. The results of least-squares calculation include the standard deviations and correlation coefficients of the refined parameters. The quantities are obtained by performing error propagation calculation from the experimental errors onto the parameters. The stability constant refinement furnishes least-squares estimates of the standard deviation, σ, of the stability constant β. The error on logβ is calculated as follows: σ(logβ) = [log(β + σ) − log(β − σ)]/2.

[5] abbreviates: calculated from logβ values, * = keto–enol moiety dissociation.

Like-named read-outs stand apart in the source and are kept apart here.

For orientation: GI50 means the concentration giving 50% growth inhibition. Read a high GI50 as less potent growth inhibition. In the case of “2-((4Z,6E)-5-hydroxy-7-(4-hydroxyphenyl)-4-((E)-3-(4-hydroxy-3-ethoxyphenyl) acryloyl) hepta-4,6-dien-1-yl)isoindoline-1,3-dione [Compound 5]”, in data set [1], the “Stability: percentage of the residual ligand after 4 h” value is listed as 52% and the “Stability ranking (residual ligand after 4 h)” value was 5. Moreover, in data set [2], the “KK (%) amount of diketo form” value amounted to 30% and the “KE (%) amount of keto–enol form” value came out at 70%. In data set [3] (HCT116, 48 h of treatment), this compound showed a GI50 of 8.76 µM. In data set [4], the “logβ011 overall protonation constant” value is 10.44 (3), the “logβ012 overall protonation constant” value is 20.45 (2) and the “logβ013 overall protonation constant” value is given as 29.58 (4). Further, in data set [4] (setting [5]), the pKa1 is reported as 9.13 (6), the pKa2 is on record as 10.01 (5) and the pKa3 is 10.44 (3).

`COc1cc(/C=C/C(=O)C(CCCN2C(=O)c3ccccc3C2=O)C(=O)/C=C/c2ccc(O)c(OC)c2)ccc1O` [Compound 4]: in data set [1], the “Stability: percentage of the residual ligand after 4 h” value is reported as 42% and the “Stability ranking (residual ligand after 4 h)” value is 7. In data set [2], the “KK (%) amount of diketo form” value was found to be 53% and the “KE (%) amount of keto–enol form” value was determined as 47%. In addition, growth in data set [3] (Homo sapiens, HCT-116, HCT116, 48 h of treatment) was halved (GI50) at 5.36 µM. Moreover, in data set [4], the “logβ011 overall protonation constant” value was 10.78 (4), the “logβ012 overall protonation constant” value is recorded as 20.44 (6) and the “logβ013 overall protonation constant” value is 29.44 (6). Further, in data set [4] (calculated from logβ values, * = keto–enol moiety dissociation, read-out: pKa1), the pKa was 9. Further, the pKa in data set [4] (calculated from logβ values, * = keto–enol moiety dissociation, read-out: pKa2) is 9.66. In addition, in data set [4] (calculated from logβ values, * = keto–enol moiety dissociation, read-out: pKa3), the pKa was 10.8.
